In US20250025526A1, “COMBINATION THERAPY FOR THE TREATMENT OF FRIEDREICH'S ATAXIA” (Stealth BioTherapeutics Inc., priority 2023, published 2025):
Where a SMILES comes first, the peptide text is derived from it. [ ]: non-standard residue; d: D form. Dmt = Cc1cc(O)cc(C)c1C[C@H](N)C(=O)O

Tests used:
[1] = system: FA (GM03665; Coriell) fibroblasts; assay: Cytoprotection assay, RSL3-induced ferroptosis, FA fibroblasts (CellTiter-Glo cell viability); format: cell-based, human; conditions: FA patient derived fibroblasts; 18 hour pre-incubation with test compounds 0.001 uM to 1 uM; then 0.5 uM RSL3 for 4 hours; FIG. 2
Method: (§1) To initiate the cytoprotection experiment, healthy (GM08402; Coriell) and FA (GM03665; Coriell) fibroblasts were resuspended in assay medium (Minimum Essential Medium Eagle w/Earles Salts and L-glutamine (MEM; Corning)+15% Qualified Fetal Bovine Serum (FBS)+penicillin (100 U)/streptomycin ([…]), seeded at 10,000 cells per well in a clear, tissue cultured treated 96 well plate), and incubated at 37° C. Eight hours later, the assay medium was manually removed and test compounds, elamipretide (Stealth Biotherapeutics Inc., Needham, MA) and omaveloxolone were added to a final volume of 100 uL at concentrations ranging between 0.001 uM and 1 uM. Following an 18 hour incubation at 37° C., the assay medium was again manually removed. Healthy fibroblasts and FA fibroblasts were then treated with 100 μL of 1 uM and 0.5 uM RSL3 (Sigma, Catalog #1219810), respectively, in assay medium for 4 hours at 37° C. Cell viability was assessed with CellTiter-Glo Luminescent Cell Viability (Promega). Luminescence units were quantified by GEN5 software on a BioTek SYNERGY neo2 plate reader (LUM filter). The data obtained for the health cells are graphically illustrated in FIG. 1 and the data obtained for the FA fibroblasts are graphically illustrated in FIG. 2. […]

[2] = system: healthy (GM08402; Coriell) fibroblasts; assay: Cytoprotection assay, RSL3-induced ferroptosis, healthy fibroblasts (CellTiter-Glo cell viability); format: cell-based, human; conditions: healthy patient derived fibroblasts; 18 hour pre-incubation with test compounds 0.001 uM to 1 uM; then 1 uM RSL3 for 4 hours; FIG. 1
Method: as §1

| Structure (SMILES) | protective/rescue effect on the RSL3 treated cells (cell viability) [1] | protective/rescue effect on the RSL3 treated cells (cell viability) [2] |
| --- | --- | --- |
| Cc1cc(O)cc(C)c1C[C@H](NC(=O)[C@H](N)CCCNC(=N)N)C(=O)N[C@@H](CCCCN)C(=O)N[C@@H](Cc1ccccc1)C(N)=O [elamipretide, H-D-Arg-2′,6′Dmt-Lys-Phe-NH2] (H-[dR][Dmt]KF-NH2) | no apparent effect | no apparent effect |
| CC1(C)CC[C@]2(NC(=O)C(C)(F)F)CC[C@]3(C)[C@H](C(=O)C=C4[C@@]5(C)C=C(C#N)C(=O)C(C)(C)[C@@H]5CC[C@]43C)[C@@H]2C1 [omaveloxolone, Omaveloxolone] | significant protective/rescue effect | significant protective/rescue effect |
